Patent US11642348B2, “Substituted benzene compounds” (Epizyme, Inc., priority 2012, dated 2023)

Key:
[1] = tested on: H3K27me3 in WSU-DLCL2 cells; assay: WSU-DLCL2 methylation assay (H3K27me3 ELISA); assay type: cell-based; conditions: Homo sapiens, WSUDLCL2, Table 3B, 96 hours, read-out: ELISA H3K27me3 IC50
[2] = target: wild-type EZH2 (PRC2 complex) (Homo sapiens (Human), UniProt Q15910); assay: PRC2 enzyme assay on peptide substrates (wild-type EZH2); conditions: read-out: WT EZH2 IC50; Table 3B; wild-type PRC2 enzyme, peptide substrate
WSU-DLCL2 cells = assay: Cell proliferation analysis (WSU-DLCL2, Cell Titer Glo); assay type: cell-based; conditions: Homo sapiens, WSUDLCL2, Table 3B, 6 days, read-out: WSU proliferation IC50

Chain of wild-type EZH2 (PRC2 complex) (Q15910 other isoform, or with tags, fused parts or gaps): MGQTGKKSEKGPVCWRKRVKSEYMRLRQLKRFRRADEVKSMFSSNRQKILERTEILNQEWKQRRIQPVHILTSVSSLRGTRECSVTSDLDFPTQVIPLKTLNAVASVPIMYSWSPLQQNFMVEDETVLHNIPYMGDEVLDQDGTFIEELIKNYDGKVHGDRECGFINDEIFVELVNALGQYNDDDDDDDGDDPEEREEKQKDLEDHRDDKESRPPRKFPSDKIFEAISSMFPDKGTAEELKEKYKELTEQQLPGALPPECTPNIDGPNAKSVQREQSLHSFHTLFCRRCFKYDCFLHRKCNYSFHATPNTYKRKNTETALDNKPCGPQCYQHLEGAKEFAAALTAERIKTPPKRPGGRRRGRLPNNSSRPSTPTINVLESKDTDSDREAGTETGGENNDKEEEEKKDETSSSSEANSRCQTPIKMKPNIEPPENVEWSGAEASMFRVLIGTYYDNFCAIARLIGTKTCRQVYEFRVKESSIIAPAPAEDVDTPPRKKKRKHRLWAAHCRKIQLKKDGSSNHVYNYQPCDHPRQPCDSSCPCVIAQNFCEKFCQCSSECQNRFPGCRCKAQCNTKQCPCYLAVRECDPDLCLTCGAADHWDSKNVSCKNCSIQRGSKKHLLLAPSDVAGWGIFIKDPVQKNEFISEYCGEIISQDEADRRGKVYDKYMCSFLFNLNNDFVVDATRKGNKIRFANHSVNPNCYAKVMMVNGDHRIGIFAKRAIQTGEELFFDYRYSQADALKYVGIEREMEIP
Chain of wild-type EZH2 (PRC2 complex) (O75530 whole entry partner): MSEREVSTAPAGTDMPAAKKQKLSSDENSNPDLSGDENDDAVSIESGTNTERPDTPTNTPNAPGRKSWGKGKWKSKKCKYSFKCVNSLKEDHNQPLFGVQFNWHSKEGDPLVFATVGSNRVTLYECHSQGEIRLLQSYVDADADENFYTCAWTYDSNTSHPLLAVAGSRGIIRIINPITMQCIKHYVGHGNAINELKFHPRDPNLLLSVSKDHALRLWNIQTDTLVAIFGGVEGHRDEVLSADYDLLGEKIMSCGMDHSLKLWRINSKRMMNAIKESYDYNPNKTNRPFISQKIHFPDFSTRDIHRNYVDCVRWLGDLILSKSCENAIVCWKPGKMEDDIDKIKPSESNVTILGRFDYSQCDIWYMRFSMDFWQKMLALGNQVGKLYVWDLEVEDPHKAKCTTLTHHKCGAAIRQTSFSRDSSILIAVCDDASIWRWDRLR
Chain of wild-type EZH2 (PRC2 complex) (Q15022 whole entry partner): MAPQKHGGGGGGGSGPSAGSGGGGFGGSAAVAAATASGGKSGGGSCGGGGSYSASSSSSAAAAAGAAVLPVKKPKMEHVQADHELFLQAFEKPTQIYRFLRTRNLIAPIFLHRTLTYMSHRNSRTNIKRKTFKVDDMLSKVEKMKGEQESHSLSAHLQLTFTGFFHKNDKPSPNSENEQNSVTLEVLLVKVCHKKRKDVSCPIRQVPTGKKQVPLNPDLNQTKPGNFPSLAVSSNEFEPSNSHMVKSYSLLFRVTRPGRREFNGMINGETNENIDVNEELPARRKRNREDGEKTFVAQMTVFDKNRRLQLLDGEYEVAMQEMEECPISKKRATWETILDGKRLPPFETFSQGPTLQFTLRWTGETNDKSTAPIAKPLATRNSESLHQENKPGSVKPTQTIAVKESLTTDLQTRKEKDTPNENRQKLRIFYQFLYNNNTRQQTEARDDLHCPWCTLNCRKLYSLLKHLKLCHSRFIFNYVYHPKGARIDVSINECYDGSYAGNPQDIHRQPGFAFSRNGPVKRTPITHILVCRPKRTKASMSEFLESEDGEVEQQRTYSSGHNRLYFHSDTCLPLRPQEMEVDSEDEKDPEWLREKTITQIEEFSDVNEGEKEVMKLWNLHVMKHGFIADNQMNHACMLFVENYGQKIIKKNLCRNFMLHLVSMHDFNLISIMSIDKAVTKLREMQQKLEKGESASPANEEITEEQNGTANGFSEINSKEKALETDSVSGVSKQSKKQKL
Chain of wild-type EZH2 (PRC2 complex) (Q09028 whole entry partner): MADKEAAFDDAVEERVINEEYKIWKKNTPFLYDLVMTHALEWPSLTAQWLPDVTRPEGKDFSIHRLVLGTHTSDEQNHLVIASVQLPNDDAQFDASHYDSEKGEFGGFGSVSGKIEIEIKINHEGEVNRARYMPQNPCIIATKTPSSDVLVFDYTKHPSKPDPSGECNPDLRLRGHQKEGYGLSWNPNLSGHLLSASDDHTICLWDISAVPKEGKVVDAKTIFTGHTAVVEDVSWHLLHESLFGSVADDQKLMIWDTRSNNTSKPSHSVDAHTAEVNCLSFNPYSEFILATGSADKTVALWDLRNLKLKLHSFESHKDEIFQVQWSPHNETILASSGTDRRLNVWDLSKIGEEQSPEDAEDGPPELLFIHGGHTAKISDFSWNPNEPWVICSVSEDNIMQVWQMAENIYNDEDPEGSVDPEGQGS

| SMILES | IC50 [1] | IC50 [2] | IC50 (WSU-DLCL2 cells) |
| --- | --- | --- | --- |
| CCN(c1cc(C#CCN2CC(O)C2)cc(C(=O)NCc2c(C(C)C)cc(C)[nH]c2=O)c1C)[C@H]1CC[C@H](N(C)C)CC1 [Compound 110] | 2010 nM | < 10 nM | 2450 nM |
| CCN(c1cc(F)cc(C(=O)NCc2c(C)cc(C)n(C)c2=O)c1C)C1C[C@@H](C)N[C@H](C)C1 (stereo partly drawn) [Compound 113] | > 25000 nM | 1220 nM | > 20000 nM |
| CCN(c1cc(F)cc(C(=O)NCc2c(C)c(F)c(C)n(C)c2=O)c1C)C1C[C@@H](C)N[C@H](C)C1 (stereo partly drawn) [Compound 115] | > 25000 nM | 497 nM | > 20000 nM |
| CCCc1cc(C)[nH]c(=O)c1CNC(=O)c1cc(F)cc(N(CC)C2C[C@@H](C)N[C@H](C)C2)c1C (stereo partly drawn) [Compound 116] | > 25000 nM | 132 nM | 13200 nM |
| CCN(c1cc(F)cc(C(=O)NCc2c(C(C)C)cc(C)[nH]c2=O)c1C)C1C[C@@H](C)N[C@H](C)C1 (stereo partly drawn) [Compound 117] | 8960 nM | 350 nM | > 20000 nM |
| CCN(c1cc(F)cc(C(=O)NCc2c(C)cc(C)[nH]c2=O)c1C)C1C[C@@H](C)N(C)[C@H](C)C1 (stereo partly drawn) [Compound 118] | 11700 nM | 36.3 nM | 3950 nM |
| CCN(c1cc(F)cc(C(=O)NCc2c(C)cc(C)[nH]c2=O)c1C)C1C[C@@H](C)N(CC)[C@H](C)C1 (stereo partly drawn) [Compound 119] | 11300 nM | 18.5 nM | 3380 nM |
| CCN(c1cc(-c2ccc(OC)nc2)cc(C(=O)NCc2c(C)cc(C)[nH]c2=O)c1C)C1C[C@@H](C)N[C@H](C)C1 (stereo partly drawn) [Compound 120] | 1430 nM | < 10 nM | 1380 nM |
| CCN(c1cc(-c2ccc(CN3CCOCC3)nc2)cc(C(=O)NCc2c(C)cc(C)[nH]c2=O)c1C)C1C[C@@H](C)N[C@H](C)C1 (stereo partly drawn) [Compound 121] | 13900 nM | < 10 nM | 3830 nM |
| CCN(c1cc(-c2ccc(CN3CCN(C)CC3)nc2)cc(C(=O)NCc2c(C)cc(C)[nH]c2=O)c1C)C1C[C@@H](C)N[C@H](C)C1 (stereo partly drawn) [Compound 122] | > 25000 nM | < 10 nM | 7560 nM |
| CCN(c1cc(-c2ccc(CN3CCNCC3)nc2)cc(C(=O)NCc2c(C)cc(C)[nH]c2=O)c1C)C1C[C@@H](C)N[C@H](C)C1 (stereo partly drawn) [Compound 123] | > 25000 nM | < 10 nM | 7900 nM |
| CCN(c1cc(-c2cnc(OC)cn2)cc(C(=O)NCc2c(C(C)C)cc(C)[nH]c2=O)c1C)C1CCOCC1 [Compound 126] | 2030 nM | < 10 nM | 906 nM |
| CCN(c1cc(-c2cnc(OC(C)C)cn2)cc(C(=O)NCc2c(C)cc(C)[nH]c2=O)c1C)C1CCOCC1 [Compound 127] | 525 nM | < 10 nM | 717 nM |
| CCN(c1cc(-c2cnc(C(F)(F)F)cn2)cc(C(=O)NCc2c(C)cc(C)[nH]c2=O)c1C)C1CCOCC1 [Compound 128] | 1550 nM | < 10 nM | 975 nM |
| CCN(c1cc(-c2ccc(CN3CC(O)C3)nc2)cc(C(=O)NCc2c(C)cc(C)[nH]c2=O)c1C)[C@H]1CC[C@H](N(C)C)CC1 [Compound 151] | 618 nM | < 10 nM | 682 nM |
| CCN(c1cc(-c2ccc(C(=O)NCCO)cc2)cc(C(=O)NCc2c(C(C)C)cc(C)[nH]c2=O)c1C)C1CCOCC1 [Compound 156] | 684 nM | < 10 nM | 890 nM |

The next molecules have a lower IC50 [1] than those just listed; values first:

| IC50 [1] | IC50 [2] | SMILES | IC50 (WSU-DLCL2 cells) |
| --- | --- | --- | --- |
| 126 nM | < 10 nM | CCN(c1cc(C#CCN2C[C@@H](C)N[C@@H](C)C2)cc(C(=O)NCc2c(C(C)C)cc(C)[nH]c2=O)c1C)C1CCOCC1 [Compound 101] | 536 nM |
| 256 nM | 10 nM | CCN(c1cc(C#CC2CCN(C[C@@H](C)O)CC2)cc(C(=O)NCc2c(C(C)C)cc(C)[nH]c2=O)c1C)C1CCOCC1 [Compound 102] | 614 nM |
| 232 nM | < 10 nM | CCN(c1cc(C#CC2CCN(C[C@H](C)O)CC2)cc(C(=O)NCc2c(C(C)C)cc(C)[nH]c2=O)c1C)C1CCOCC1 [Compound 103] | 745 nM |
| 66 nM | < 10 nM | CCN1CCC(C#Cc2cc(C(=O)NCc3c(C)cc(C)[nH]c3=O)c(C)c(N(CC)C3CCOCC3)c2)CC1 [Compound 104] | 549 nM |
| 44 nM | < 10 nM | CCN(c1cc(C#CCN2CCCCC2)cc(C(=O)NCc2c(C)cc(C)[nH]c2=O)c1C)C1CCOCC1 [Compound 106] | 188 nM |
| 28 nM | 11 nM | CCN(c1cc(C#CCN2CCCC2)cc(C(=O)NCc2c(C)cc(C)[nH]c2=O)c1C)C1CCOCC1 [Compound 107] | 26.2 nM |
| 42 nM | < 10 nM | CCN(c1cc(C#CCN2CCC[C@H](O)C2)cc(C(=O)NCc2c(C)cc(C)[nH]c2=O)c1C)[C@H]1CC[C@H](N(C)C)CC1 [Compound 108] | 438 nM |
| 244 nM | < 10 nM | CCN(c1cc(C#CCN2CC(O)C2)cc(C(=O)NCc2c(C)cc(C)[nH]c2=O)c1C)[C@H]1CC[C@H](N(C)C)CC1 [Compound 109] | 1060 nM |
| 306 nM | < 10 nM | CCN(c1cc(-c2cnc(OC3CN(C)C3)cn2)cc(C(=O)NCc2c(C)cc(C)[nH]c2=O)c1C)C1CCOCC1 [Compound 131] | 194 nM |
| 177 nM | 20 nM | CCN(c1cc(-c2cnc(OC3CCN(C)CC3)cn2)cc(C(=O)NCc2c(C)cc(C)[nH]c2=O)c1C)C1CCOCC1 [Compound 132] | 526 nM |
| 161 nM | < 10 nM | CCN(c1cc(-c2ccc(CN3CCCN(C)CC3)nc2)cc(C(=O)NCc2c(C)cc(C)[nH]c2=O)c1C)[C@H]1CC[C@H](N(C)C)CC1 [Compound 146] | 217 nM |
| 74.3 nM | < 10 nM | CCN(c1cc(-c2ccc(CN3CCC[C@H](O)C3)nc2)cc(C(=O)NCc2c(C)cc(C)[nH]c2=O)c1C)[C@H]1CC[C@H](N(C)C)CC1 [Compound 147] | 116 nM |
| 504 nM | < 10 nM | CCN(c1cc(-c2ccc(CN3CC[C@H](O)C3)nc2)cc(C(=O)NCc2c(C)cc(C)[nH]c2=O)c1C)[C@H]1CC[C@H](N(C)C)CC1 [Compound 148, N-((4,6-Dimethyl-2-oxo-1,2-dihydropyridin-3-yl)methyl)-3-((4-trans-(dimethylamino)cyclohexyl)(ethyl)amino)-5-(6-(((S)-3-hydroxypyrrolidin-1-yl)methyl)pyridin-3-yl)-2-methylbenzamide] | 243 nM |
| 20 nM | < 10 nM | CCN(c1cc(-c2cnc(N3CCN(C)CC3)cn2)cc(C(=O)NCc2c(C)cc(C)[nH]c2=O)c1C)[C@H]1CC[C@H](N(C)C)CC1 [Compound 149] | 316 nM |
| 377 nM | < 10 nM | CCN(c1cc(-c2ccc(CN3CC[C@H](O)C3)nc2)cc(C(=O)NCc2c(C(C)C)cc(C)[nH]c2=O)c1C)[C@H]1CC[C@H](N(C)C)CC1 [Compound 150] | 361 nM |
| 60 nM | 18 nM | CCN(c1cc(-c2ccc(COC)nc2)cc(C(=O)NCc2c(C)cc(C)[nH]c2=O)c1C)[C@H]1CC[C@H](N(C)C)CC1 [Compound 152] | 412 nM |
